Laboratory results from patent US20210228549A1 (Biohaven Therapeutics Ltd., priority 2015, published 2021).
Where two headings read alike, the source gives them in different places.

Tests used:
[1] = tested on: patients diagnosed with Alzheimer's disease of mild-to-moderate severity; conditions: for CDR01-Sum of Boxes, Model Estimates, Difference LSMean (SE) / ADAS-Cog Total Score, Model Estimates, Difference LSMean (SE) / Hippocampal Volume Change, Model Estimates, Difference LSMean (SE): placebo vs troriluzole; for Hippocampal Volume Change, Model Estimates, LSMean (SE) / Hippocampal Volume Change, Model Estimates, Difference LSMean (SE) / Hippocampal Volume Change, Analysis Value, Mean (SD) / Hippocampal Volume Change, Analysis Value, Median: volumetric MRI;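 for all read-outs here: multicenter parallel-group study, AD severity graded by Mini-Mental State Examination score (mild 20–24, moderate 14–19)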
Procedure: This is a phase 2 multi-center, randomized, double blind, placebo-controlled, parallel group study in patients with mild to moderate Alzheimer's disease.
Participants will be randomized to one of two groups: 280 mg of BHV-4157 or placebo. […] Treatment duration is 48 weeks (12 months). There is a screening period of up to 42 days and a 4-week post-treatment observation period.
The CDR-SOB (Hughes, Berg, Danziger, Coben, & Martin, 1982) is a validated composite rating of cognition and everyday functioning used in longitudinal AD research which incorporates both informant input and direct assessment of performance. It assesses through semi structured interview 3 cognitive domains including memory, orientation, and judgement/problem solving and 3 everyday functional domains including community affairs, home and hobbies and personal care. There are 5 levels of impairment from none CDR=0 to severe CDR=3. The individual domain scores are added to create a sum of the box scores.

[2] = PK in fasted male Sprague Dawley rats, PO administration of prodrug; format: in vivo; conditions: for Prodrug AUGlast, Mean: PO 5 mg/kg
Procedure: (§1) Blood samples were collected at pre-determined time points including a 0 h time point and usually between 7 and 8 additional time points not exceeding a 24 h period.
(§2) Plasma samples were extracted and analyzed using the methods described in Plasma Sample Extraction and Analysis. All data are expressed as ng/mL of the free base. Samples that were below the limit of quantification (0.5 ng/mL) were not used in the calculation of averages.
(§3) Pharmacokinetic parameters were calculated from the time course of the plasma concentrations. Pharmacokinetic parameters were determined with Phoenix Winnonlin (v6.3) software using a non-compartmental model. The maximum plasma concentration (Cmax) and time to the maximum plasma concentration (Tmax) of the compound of the disclosure were observed from the data. The area under the concentration-time curve (AUC) of the compound of the disclosure was calculated using the trapezoidal formula with calculation to the last quantifiable data point, and to infinity if applicable. Plasma half-life (t1/2) was calculated from 0.693/slope of the terminal elimination phase. Mean residence time, MRT, was calculated by dividing the area under the moment curve (AUMC) by the AUC. Any samples below the limit of quantitation (0.5 ng/mL) were treated as zero for pharmacokinetic data analysis.
Plasma Sample Extraction and Analysis: Analytical stock solutions (1.00 mg/mL of the free compound of the disclosure) were prepared in DMSO. Standards were prepared in diluted matrix containing 1 part 10% formic acid and 9 parts Sprague-Dawley rat plasma containing sodium heparin as the anticoagulant (pre-diluted with 1 part of 0.5M citric acid and 9 parts whole blood). Working solutions were prepared in 50:50 acetonitrile:water. Working solutions were then added to plasma to make calibration standards to final concentrations of 1000, 500, 100, 50, 10, 5, 1, and 0.5 ng/mL. Standards contained both the test article and riluzole. Standards were treated identically to the study samples.
Sample Extraction: Plasma samples were extracted via acetonitrile precipitation on a Tomtec Quadra 96-Model 320 liquid handling system in a 96-well plate format.

[3] = PK in fasted male Sprague Dawley rats, IV administration of prodrug; format: in vivo
Procedure: as §1, §2
as §3, with “analysis. […]” for “analysis.”

Melanoma C8161 cells = test: Inhibition of human melanoma cell xenograft growth; format: in vivo; conditions: C8161 xenograft in nude mice, P<0.01
Procedure: Mice were treated every day for 21 days, and tumor sizes were measured twice weekly with a Vernier caliper.

[4] = tested on: patients with Stage III and IV melanoma; conditions: after only 14 days of treatment, cited from earlier work
[5] = Mild AD Patients Only, Week 48, troriluzole 280 mg once daily, N 62
[6] = Mild AD Patients Only, Week 48, troriluzole 280 mg once daily, N 65
[7] = mild-to-moderate AD, Week 48, troriluzole 280 mg once daily, N 118
[8] = mild-to-moderate AD, Week 48, troriluzole 280 mg once daily, N 119
[9] = Mild AD Patients Only, Week 48, troriluzole 280 mg once daily, N 48
[10] = mild-to-moderate AD, Week 48, troriluzole 280 mg once daily, N 87
[11] = fasted male Sprague Dawley rats, prodrug in plasma

SMILES: CN(CC(=O)Nc1nc2ccc(OC(F)(F)F)cc2s1)C(=O)CNC(=O)CN [Example 204, 2-Amino-N-{[methyl({[6-(trifluoromethoxy)-1,3-benzothiazol-2-yl]carbamoyl}methyl)carbamoyl]methyl}acetamide]
- Safety and tolerability ([1]; 280 mg once daily, safety profile consistent with previous studies): relatively well tolerated
- CDR01-Sum of Boxes, Model Estimates, LSMean (SE) ([1]; Mild AD Patients Only, Week 48, change from baseline, 95% CI (1.1, 2.2)): 1.7 (0.29)
- ADAS-Cog Total Score, Model Estimates, LSMean (SE) ([1]; Mild AD Patients Only, Week 48, change from baseline, 95% CI (2.7, 5.7)): 4.2 (0.76)
- CDR01-Sum of Boxes, Model Estimates, Difference LSMean (SE) ([1]; Mild AD Patients Only, Week 48, 95% CI (−1.1, 0.5), P-Value 0.4347): −0.3 (0.40)
- ADAS-Cog Total Score, Model Estimates, Difference LSMean (SE) ([1]; Mild AD Patients Only, Week 48, 95% CI (−1.4, 2.7)): 0.7 (1.02)
- CDR01-Sum of Boxes, Analysis Value, Mean (SD) [1, 5]: 7.1 (2.79)
- CDR01-Sum of Boxes, Analysis Value, Median [1, 5]: 6.5
- CDR01-Sum of Boxes, Change from Baseline, Mean (SD) [1, 5]: 1.4 (2.06)
- CDR01-Sum of Boxes, Change from Baseline, Median [1, 5]: 1.0
- ADAS-Cog Total Score, Analysis Value, Mean (SD) [1, 6]: 26.2 (8.22)
- ADAS-Cog Total Score, Analysis Value, Median [1, 6]: 26.0
- ADAS-Cog Total Score, Change from Baseline, Mean (SD) [1, 6]: 3.9 (5.90)
- ADAS-Cog Total Score, Change from Baseline, Median [1, 6]: 4.0
- NPI across subgroups ([1]; Week 48, only mild AD, only moderate AD, only ApoE4 positive, only ApoE4 negative patients): numerical differences of a potential benefit
- ADAS-Cog11 score, difference placebo vs troriluzole ([1]; mild AD, after 48 weeks, 95% CI −1.4, 2.7, p-value=0.5233): 0.7
- LS mean percent deformation change from baseline hippocampal volume ([1]; mild AD, after 48 weeks, n=48, 95% CI −1.6, −0.6, placebo −1.6%): −1.1%
- LS mean change from baseline on the NPI score ([1]; mild AD, after 48 weeks, n=62, placebo 4.2 points): 2.1 points
- LS mean change from baseline on the ADAS-Cog11 score ([1]; mild AD, after 48 weeks, n=65, 95% CI 2.7, 5.7, placebo 4.9 points): 4.2 points
- CDR01-Sum of Boxes, Model Estimates, LSMean (SE) ([1]; mild-to-moderate AD, Week 48, change from baseline, 95% CI (1.7, 2.5)): 2.1 (0.21)
- CDR01-Sum of Boxes, Model Estimates, Difference LSMean (SE) ([1]; mild-to-moderate AD, Week 48, 95% CI (−0.8, 0.3), P-Value 0.4474): −0.2 (0.28)
- ADAS-Cog Total Score, Model Estimates, Difference LSMean (SE) ([1]; mild-to-moderate AD, Week 48, 95% CI (−1.8, 1.8), P-Value 0.9809): 0.0 (0.93)
- CDR01-Sum of Boxes, Analysis Value, Mean (SD) [1, 7]: 8.3 (3.24)
- CDR01-Sum of Boxes, Analysis Value, Median [1, 7]: 8.0
- CDR01-Sum of Boxes, Change from Baseline, Mean (SD) [1, 7]: 1.9 (2.37)
- CDR01-Sum of Boxes, Change from Baseline, Median [1, 7]: 2.0
- ADAS-Cog Total Score, Analysis Value, Mean (SD) [1, 8]: 31.5 (10.82)
- ADAS-Cog Total Score, Analysis Value, Median [1, 8]: 30.0
- ADAS-Cog Total Score, Charge from Baseline, Mean (SD) [1, 8]: 0.8 (7.40)
- ADAS-Cog Total Score, Charge from Baseline, Median [1, 8]: 0.0
- NPI score, difference troriluzole vs placebo ([1]; mild-to-moderate AD, after 48 weeks, 95% CI −4.08, 1.10, p-value=0.258): −1.5
- LS mean change from baseline on the NPI score ([1]; mild-to-moderate AD, after 48 weeks, n=120, placebo 3.8 points): 2.3 points
- Hippocampal Volume Change, Model Estimates, LSMean (SE) ([1]; Mild AD Patients Only, Week 48, 95% CI (−1.6, −0.6)): −1.1 (0.27)
- Hippocampal Volume Change, Model Estimates, Difference LSMean (SE) ([1]; Mild AD Patients Only, Week 48, 95% CI (−1.2, 0.3), P-Value 0.2240): −0.5 (0.38)
- Hippocampal Volume Change, Analysis Value, Mean (SD) [1, 9]: −1.1 (1.61)
- Hippocampal Volume Change, Analysis Value, Median [1, 9]: −0.9
- Hippocampal Volume Change, Model Estimates, LSMean (SE) ([1]; mild-to-moderate AD, Week 48, 95% CI (−1.4, −0.7)): −1.1 (0.18)
- Hippocampal Volume Change, Model Estimates, Difference LSMean (SE) ([1]; mild-to-moderate AD, Week 48, 95% CI (−0.6, 0.5), P-Value 0.8670): 0.0 (0.26)
- Hippocampal Volume Change, Analysis Value, Mean (SD) [1, 10]: −1.1 (1.50)
- Hippocampal Volume Change, Analysis Value, Median [1, 10]: −0.9
- Prodrug AUGlast, Mean [2, 11]: 0.90 ng·h/mL

SMILES: CN(CC(=O)Nc1nc2ccc(OC(F)(F)F)cc2s1)C(=O)CNC(C)(C)C [Example 125, 2-(tert-butylamino)-N-methyl-N-(2-oxo-2-((6-(trifluoromethoxy)benzo[d]thiazol-2-yl)amino)ethyl)acetamide]
- Half life on conversion to Riluzole [3]: moderate to long half life
- bioavailability ([2]; rat, plasma, fasted male Sprague Dawley rats, PO 14 mg/kg, prodrug, read-out: Example 125 % F (bioavailability)): 26%
- AUC(0-inf) ([2]; rat, fasted male Sprague Dawley rats, PO 14 mg/kg, prodrug in plasma, read-out: Example 125 AUCinf, Mean): 2290 ng·h/mL
- AUC(0-t) ([2]; rat, fasted male Sprague Dawley rats, PO 14 mg/kg, prodrug in plasma, read-out: Example 125 AUClast, Mean): 2260 ng·h/mL
- Cmax ([2]; rat, fasted male Sprague Dawley rats, PO 14 mg/kg, prodrug in plasma, read-out: Example 125 Cmax, Mean): 213 ng/mL
- half-life ([2]; rat, fasted male Sprague Dawley rats, PO 14 mg/kg, prodrug in plasma, read-out: Example 125 t1/2, Mean (converted)): 3.8 h
- Tmax ([2]; rat, fasted male Sprague Dawley rats, PO 14 mg/kg, prodrug in plasma, read-out: Example 125 tmax, Mean): 1.8 h
- Half life on conversion to Riluzole ([2]; rats, oral administration): long half life
- Oral bioavailability on conversion to Riluzole ([2]; rats, oral administration): high oral bioavailability
- Tumor volume vs untreated or vehicle-treated controls (Melanoma C8161 cells; 4.9 mg/kg (threefold lower in molar terms) p.o. gavage every day for 21 days): significant reduction in tumor volume
- Tumor volume vs untreated or vehicle-treated controls (Melanoma C8161 cells; 14.6 mg/kg (equimolar to riluzole) p.o. gavage every day for 21 days): significant reduction in tumor volume

SMILES: CN(CC(=O)Nc1nc2ccc(OC(F)(F)F)cc2s1)C(=O)CNC1CCNCC1 [Example 216, N-methyl-2-[(piperidin-4-yl)amino]-N-({[6-(trifluoromethoxy)-1,3-benzothiazol-2-yl]carbamoyl}methyl)acetamide]
- Prodrug AUGlast, Mean [2, 11]: 16.6 ng·h/mL

SMILES: Nc1nc2ccc(OC(F)(F)F)cc2s1 [riluzole]
- Patients with clinical or radiologic evidence of tumor response ([4]; listed as Riluzole): four of 12
- Patients with clinical or radiologic evidence of tumor response [4]: four of twelve
